# Assay results: patent US20170035742A1, “DURABLE TREATMENT WITH 4-AMINOPYRIDINE IN PATIENTS WITH DEMYELINATION” (Acorda Therapeutics, Inc., priority 2009, published 2017)
# Key:
# [1] = Tissue distribution of 14C-labeled 4-aminopyridine 1 mg/kg p.o. in rats; conditions: one hour post-dose
# Method: In a single-dose study, rats were administered ^14C-labeled 4-aminopyridine (1 mg/kg) p.o. Three animals per time point were sacrificed 1, 3, 8, and 24 hours post-dose. Blood was collected and tissues were excised for determination of radioactivity.
# Plasma protein binding = assay type: in vitro ADME; conditions: human
# Source text: Measurable levels are present in the saliva.
# [2] = Single- and repeated-dose toxicity studies; assay type: in vivo; conditions: after large single doses or repeated lower doses, all species studied
# Source text: In single- and repeated-dose toxicity studies, the dosing regimen greatly affected the rate of side effects. […] These clinical signs were not unexpected and represent exaggerated pharmacology of 4-aminopyridine.
# [3] = Adverse events in controlled clinical studies; assay type: in vivo, human
# Source text: In controlled clinical studies involving the use of 4-aminopyridine, the most frequent adverse events by body system occurred in the nervous system, “body as a whole”, and digestive system.
# While an increased incidence of such events appears to be moderately dose-related, the susceptibility of individuals is quite variable. As a result of disease pathology, there appears to be potential for more lowering of seizure threshold in people with MS than for people with spinal cord injury; this may result from interaction of the channel-blocking properties of the drug with MS brain pathology in certain individuals.
# [4] = tested on: patients with multiple sclerosis; test: MS-F203EXT open-label extension study; conditions: over two years open-label
# Method: This extension study (MS-F203EXT) monitored efficacy and safety during open-label treatment of patients from MS-F203. Design/methods: Patients were treated with 10 mg fampridine bid, and were assessed in the clinic at 2, 14, and 26 weeks and every 6 months thereafter. Eligibility criteria included: definite MS; age 18-70; Timed 25-Foot Walk (T25FW) times of 8-45 seconds at screening for MS-F203. Efficacy was analyzed by the proportion of Extension Timed Walk Responders (ETWRs) whose walking was faster during the majority of visits than their fastest off-treatment speed.
# MS-F203EXT monitored efficacy and safety during open-label treatment of patients from MS-F203. Patients were treated with 10 mg fampridine bid, and were assessed in the clinic at 2, 14, and 26 weeks and every 6 months thereafter. Eligibility criteria included: definite MS; age 18-70; Timed 25-Foot Walk (T25FW) times of 8-45 seconds at screening for MS-F203. Efficacy was analyzed by the proportion of Extension Timed Walk Responders (ETWRs) whose walking was faster during the majority of visits than their fastest off-treatment speed. […] There are safety assessments, a timed 25 Foot Walk assessment, Clinician and Subject Global Impression at each visit. An EDSS assessment is performed every 2 years.
# Timed walk response in the extension study was measured using the Timed 25-Foot Walk (T25W). […]
# [5] = Rat i.v. and p.o. pharmacokinetics, 2 mg/kg (M 2001-03); conditions: AUC(0-∞) p.o. vs i.v.
compound,measurement,setting,value
^14C-4-Aminopyridine,dose accounted for in total,[1],58.3%
same,"radioactivity in blood, percent of dose",[1],0.7%
same,"radioactivity in kidney, percent of dose",[1],1.6%
same,"radioactivity in liver, percent of dose",[1],2.6%
Nc1ccncc1 [4-aminopyridine],unbound to plasma proteins,Plasma protein binding,97-99%
same,clinical signs,[2],"tremors, convulsions, ataxia, dyspnea, dilated pupils, prostration, abnormal vocalization, increased respiration, excess salivation, gait abnormalities, and hyper- and hypo-excitability"
same,most common nervous system adverse events,[3],"Dizziness, insomnia, paresthesia, pain, headache and asthenia"
same,most frequently reported event in the digestive system category,[3],nausea
same,safety profile,[4],No new safety issues emerged
same,bioavailability,[5]; female rats,~55%
same,bioavailability,[5]; male rats,approximately 66.5%
